In patent US5843481A, “Treatment of proliferative disorders, metastasaes, and drug resistant tumors with vanadate compounds and derivatives or analogues thereof” (priority 1994, dated 1998):

What was measured:
MDAY-D2 [1] = assay: MDAY-D2 tumor growth in mice, combination therapy, Example 7; assay type: in vivo
Experimental: Twenty mice were injected subcutaneously with 2×10^5 cells on Day 1. At day 4, the mice were divided into four groups of five mice. Group one (control) received subcutaneous injections of 50 μl of water. Group two received daily intraperitoneal injections of 50 μl of 250 mM N-acetylcysteine. Group three received daily subcutaneous injections of 50 μl of 10 mg/ml of orthovanadate. Group four received daily intraperitoneal injections of 50 μl of […] N-acetylcysteine and 20 minutes later received 50 μl of subcutaneous injection of 50 μl of 10 mg/ml of orthovanadate. On day 10 the treatment was stopped. The animals were sacrificed on Day 13 and analyzed for tumor growth.

MDAY-D2 cells = assay: Viability of MDAY-D2 cells with different vanadyl compounds; assay type: cell-based, mouse; conditions: 0-50 μM, 48 hours; FIG. 8
Experimental: Three different forms of vanadyl compounds were examined for their effect on viability of cancer cell lines. MDAY-D2 cells were incubated in media containing 0-50 μM orthovanadate, vanadyl sulphate, or vanadyl hydroperoxide for 48 hours. The cells were harvested and the number of viable cells determined. […] Although there were slight differences in sensitivity, the overall cell death was similar.

[2] = test system: proliferating chondrocytes; assay: Viability of proliferating chondrocytes (low cell density); assay type: cell-based, bovine; conditions: 0-50 μM, 48 hours; FIG. 6
Experimental: (§1) As described in example 1, orthovanadate inhibited fos, jun and collagenase expression. If fos and jun expression are required for cellular proliferation, then orthovanadate should inhibit chondrocyte proliferation. In order to compare the effect of orthovanadate on non-proliferating and proliferating chondrocytes, chondrocytes were plated at both high cell density (2×10^6 to 4×10^6 cells/per well on a six well plate) (nonproliferating) and at a lower cell density (5×10^5 to 1×10^6 cells/per well on a six well plate) (proliferating) and then maintained for 48 hours. The cells were then incubated in media (HAMS F12) containing 0-50 μM Orthovanadate for an additional 48 hours. The cells were harvested and the number of viable cells determined.

collagenase = assay: Collagenase production by chondrocytes (ELISA of conditioned medium); assay type: cell-based, bovine; conditions: orthovanadate 100 uM, 2 hours before stimulation
Experimental: (§2) Bovine articular chondrocytes were isolated and plated as previously described (Kandel R. A. et al. Biochim. Biophys. Acta. 1053, 130-134, 1990). In order to determine the effect of orthovanadate on IL 1 and PMA (phorbol ester) induced responses, chondrocytes were incubated with orthovanadate (100 μM) for 2 hours before stimulation with IL 1 (10 ng/ml) or PMA ([…]). collagenase production was determined by incubating chondrocytes for 24 hours with IL 1 or PMA and the cell conditioned medium was assayed for collagenase activity using an ELISA procedure as described previously (Kandel et al. supra) PLA2 activity was measured by incorporating ^3 H-arachidonic acid (^3 H-AA) into the cells and then incubating the cells with medium containing 1 mg/ml BSA, either alone or in the presence of IL 1 or PMA, for 10 min. as previously described (Conquer, J. A. […], Biochim. Biophys. Acta. 1134, 1-6). The amount of ^3 H-AA liberated into the supernatant was determined. To measure PGE2 production, chondrocytes were incubated for 6 hours in Ham's F12 medium, either alone or with IL 1 or PMA. The supernatant was analyzed by RIA using an antibody specific for PGE2 (Dr. S. A. Jones, Mount Sinai Hospital, Toronto, Can.). In order to examine the expression of c-fos and c-jun, chondrocytes were incubated for 1 hour in the presence of IL-1, PMA or AA (3 μM). […]

fos = assay: Northern blot analysis of fos mRNA expression in chondrocytes; assay type: cell-based, bovine
Experimental: The cytokine interleukin 1 (IL 1) has been used to identify the intermediate second messengers which regulate the expression of fos and jun.
In order to elucidate this possibility, the effect of DPI on fos and jun mRNA levels induced by IL 1 was investigated. RNA from chondrocytes treated with IL 1 in the presence and absence of DPI were analyzed by Northern blot analysis using either fos or collagenase cDNA probes.
Since superoxides are rapidly converted to hydrogen peroxide in the cell by superoxide dismutase, whether hydrogen peroxide could mimic the effect of IL 1 in the induction of fos expression was investigated. RNA was extracted from chondrocytes (Kandel et al. supra) treated with H2 O2 for 30, 60 and 90 minutes and examined by Northern blot analysis using a fos cDNA probe.
Bovine articular chondrocytes were isolated and plated as previously described (Kandel R. A. et al. Biochim. Biophys. Acta. 1053, 130-134, 1990). In order to determine the effect of orthovanadate on IL 1 and PMA (phorbol ester) induced responses, chondrocytes were incubated with orthovanadate (100 μM) for 2 hours before stimulation with IL 1 (10 ng/ml) or PMA ([…]). collagenase production was determined by incubating chondrocytes for 24 hours with IL 1 or PMA and the cell conditioned medium was assayed for collagenase activity using an ELISA procedure as described previously (Kandel et al. supra) PLA2 activity was measured by incorporating ^3 H-arachidonic acid (^3 H-AA) into the cells and then incubating the cells with medium containing 1 mg/ml BSA, either alone or in the presence of IL 1 or PMA, for 10 min. as previously described (Conquer, J. A. […], Biochim. Biophys. Acta. 1134, 1-6). The amount of ^3 H-AA liberated into the supernatant was determined. To measure PGE2 production, chondrocytes were incubated for 6 hours in Ham's F12 medium, either alone or with IL 1 or PMA. The supernatant was analyzed by RIA using an antibody specific for PGE2 (Dr. S. A. Jones, Mount Sinai Hospital, Toronto, Can.). In order to examine the expression of c-fos and c-jun, chondrocytes were incubated for 1 hour in the presence of IL-1, PMA or AA (3 μM). Chondrocytes were washed in PBS and the total RNA extracted as previously described (Cruz. et al, 1991, Biochem. J. 277, 327-330). RNA samples were run on formaldehyde agarose gels and transferred to nylon membrane for northern analysis using cDNA probes for c-fos and c-jun.
Cells were also incubated as described above with 20 mM N-acetylcyateine for 20 min. and then incubated with IL 1 for an additional 1 or 12 hours. The RNA was extracted and examined by Northern blot analysis using cDNA probes for c-fos and collagenase.

MDAY-D2 [3] = assay: MDAY-D2 tumor growth in mice, three vanadyl compounds, Example 6B; assay type: in vivo
From the text: In order to examine the ability of vanadyl compounds to reduce tumor formation, growth and metastases, a specific animal model which allows investigation of all of these processes in the same animal was chosen. This model involves the injection of a metastatic haematopoietic cell line, MDAY-D2, into mice subcutaneously. These cells form a tumor at the site of injection and its size can be easily determined. In addition, these cells metastasize to the liver and metastases can be detected histologically after day 17 to 19. This model provides a very sensitive and reproducible approach to investigate the effect of vanadyl compounds on tumor growth and metastases.
In a separate experiment using the same animal model, the effect of orthovanadate, vanadyl sulphate and vanadyl hydroperoxide administration on tumor growth in vivo was examined. On Day 1, 20 mice were injected with 2×10^5 MDAY-D2 cell subcutaneously. The mice were divided into four groups of five mice. At day 5, the animals were injected subcutaneously with 50 μl of water alone or containing 10 mg/ml of orthovanadate, 10 mg/ml of vanadyl sulphate, or 10 mg/ml of vanadyl hydroperoxide. This treatment was continued daily for 16 days. At day 21, the mice were sacrificed and the tumors dissected and weighed.

PGE2 = PGE2 production by chondrocytes (RIA); assay type: cell-based, bovine; conditions: orthovanadate 100 uM
Experimental: as §2

[4] = test system: non-proliferating chondrocytes; assay: Viability of non-proliferating chondrocytes (high cell density); assay type: cell-based, bovine; conditions: 0-50 μM, 48 hours; FIG. 6
Experimental: as §1

SMILES: [O]=[V]([O-])([O-])[O-] [orthovanadate]
- animals that died during the experiment (MDAY-D2 [1]; 10 mg/ml s.c. daily, group of five mice): One orthovanadate treated animal died
- animals without detectable tumors (MDAY-D2 [1]; day 13, FIG. 14, orthovanadate: of four mice, combination: of five): two had no detectable tumors
- effectiveness in killing MDAY-D2 cells (MDAY-D2 cells): equally effective
- toxicity to cells plated at low cell density (proliferating) [2]: toxic
- collagenase production (IL 1 or PMA) (collagenase): completely inhibited
- IL 1, PMA and AA induced c-fos expression (fos; orthovanadate 100 μM, FIGS. 4 and 18): completely inhibited
- fos expression in response to factors such as IL 1 or arachidonic acid (fos; summary statement): completely inhibit
- effect on tumor growth, in words (MDAY-D2 [3]; 10 mg/ml s.c. daily): most efficacy in reducing tumor growth
- mice without detectable tumors (MDAY-D2 [3]; 10 mg/ml s.c., day 21): one mouse did not have detectable tumors
- animals that died (MDAY-D2 [3]; 10 mg/ml, 50 μl s.c. daily for 16 days, groups of five mice): One animal died
- production of PGE2 (IL 1 or PMA) (PGE2): did not inhibit
- toxicity to chondrocytes plated at high cell density (non-proliferating) [4]: did not effect
